“And” between values parts separate entries of the source, which are not always exact repeats. Equal entries are not always repeated.
Test system: 186277-243-T-J2-PDC complex spheroid growth
Assay: Anticancer human tumor 186277-243-T-J2-PDC patient-derived colon adenocarcinoma cell line growth inhibition [AhR]
Conditions: for viability, T/C: stronger effect = lower value
Text: Multicellular complex tumor spheroid response to aryl hydrocarbon receptor antagonists in combination with a variety of drugs and investigational agents in selected tumor cell lines
The current study was undertaken to assess response to aryl hydrocarbon receptor antagonists in combination with standard-of-care drugs and investigational agents in solid tumor complex spheroid models. Complex spheroids include a stromal component modeled by human endothelial cells (HUVEC) and fibroblasts modeled by human mesenchymal stem cells (MSCs). The concentration ranges selected for each drug and investigational agent were based upon clinically achievable concentrations if the clinical Cmax of the agent was known.
Compounds. The drugs and investigational agents: BAY 2416964 (NSC825713), GNF351 (NSC835774), CH-223191 (NSC835775), CPI-455 (NSC825282), aza-TdCyd (NSC777586), decitabine (NSC127716), belinostat (NSC758774), entinostat (NSC756642), pevonedistat (NSC761192), tazemetostat (NSC777109), talazoparib (NSC765396), olaparib (NSC753686), selinexor (NSC780203), nedisertib (M3814, NSC802822), bortezomib (NSC756655), venetoclax (NSC766270), doxorubicin (NSC123127), elimusertib (BAY189344, NSC800525), ceralasertib (AZD6738, NSC777638), TAK-243 (NSC785004), alisertib (NSC759677), etoposide (NSC141540), topotecan (NSC609699), eribulin (NSC707389), gemcitabine (NSC613327), carboplatin (NSC241240), cisplatin (NSC119875), and SN-38 (NSC673596) were obtained from the National Cancer Institute (NCI) Developmental Therapeutics Program Chemical Repository (32). The FDA-approved anticancer drug set is available from the Developmental Therapeutics Program at https://dtp.cancer.gov/organization/dscb/obtaining/available plates.htm. […] The stock solutions were prepared in dimethyl sulfoxide (DMSO, Sigma-Aldrich, St. Louis, MO, cat. D2650), except for the platinum compounds which were prepared in saline (Quality Biological, Gaithersburg, MD, cat. 114-055-101), at 800-fold the tested concentration and stored at -70 degrees C prior to their use. All drugs and investigational agents were tested over a range starting from a high concentration at or near the clinical Cmax and decreasing in half-log increments. If the clinical Cmax for an agent had not been determined, the highest concentration tested was 10 microM (Table 1).
Cell Culture. All cells were maintained in an incubator at 37 degrees C and 5% CO2 with 95% humidity. The PDC lines were cultured according to standard operating procedures established by the NCI PDMR (https://pdmr.cancer.gov). Briefly, all PDCs were thawed and cultured in Matrigel-coated flasks prepared with a working solution of 1X Ham's F-12 nutrient mix, without supplementation (Invitrogen, Waltham, MA, cat. 11765054), 100 U/mL penicillin-streptomycin (Invitrogen, cat. 15140122), and 2.5% Matrigel (Corning Inc., Corning, NY, cat. 354248) for the first three passages. All PDCs were cultured in complete DMEM/F-12 media containing advanced DMEM/F-12 (Invitrogen, cat. 12634028), 4.9% defined fetal bovine serum, heat inactivated (HyClone Laboratories Inc., Logan, UT, cat. SH30070.03HI), 389 ng/mL hydrocortisone (Sigma-Aldrich, cat. H4001), 9.7 ng/mL human EGF recombinant protein (Invitrogen, cat. PHG0313), 23.4 microg/mL adenine (Sigma-Aldrich, cat. A2786), 97.3 U/mL penicillin-streptomycin (Invitrogen, cat. 15140122), 1.9 mM L-glutamine (Invitrogen, cat. 25030081), and 9.7 microM Y-27632 dihydrochloride (Tocris Bioscience, Bristol, United Kingdom, cat. 1254). The PDCs were cultured in complete DMEM/F12 media without 10 microM Y-27632 dihydrochloride for at least two passages prior to the screen. The established cell lines NCI-H1341 and […] were cultured in DMEM/F-12, HEPES (Invitrogen, cat. 11330032), 5% defined fetal bovine serum (HyClone Laboratories Inc., cat. SH30070.03), ITS premix universal culture supplement [insulin (5 microg/mL), transferrin (5 microg/mL), and selenious acid (5 ng/mL)] […]
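Further: spheroids exposed to compounds for seven days before the viability read.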
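Wherever viability, T/C is given: luminescent signal used as a stand-in for viable cell amount; 100% = DMSO vehicle control wells.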

Compound | IC50 (curve of compound) | viability, T/C (compound 0.0316 µM) | viability, T/C (compound 0.1 µM) | viability, T/C (compound 1 µM) | viability, T/C (compound 3.16 µM) | viability, T/C (compound 10 µM) | viability, T/C (compound 0.316 µM) | other results
COc1cccc2c1C(=O)c1c(O)c3c(c(O)c1C2=O)CC(O)(C(=O)CO)CC3OC1CC(N)C(O)C(C)O1 (configuration not stated) | – | 111% and 154% and 44.9% | 74.9% and 144% and 30.5% | 0.9% and 5.52% and 0.26% | 0.36% and 0.59% and 0.22% | 0.28% and 1.4% and 0.25% | – | –
Cc1ccccc1N=Nc1ccc(NC(=O)c2ccnn2C)c(C)c1 | – | – | – | 99.2% [middle of 20 runs] | 96% [middle of 20 runs] | 88.8% [middle of 20 runs] | – | IC50 (compound alone, run of 07/26/2022): > 10000 nM
Cc1cncc(-c2nc(NCCc3c[nH]c4ccccc34)c3ncn(C(C)C)c3n2)c1 | – | – | – | – | – | – | 97.7% [middle of 20 runs] | –
Cn1ncnc1C1c2n[nH]c(=O)c3cc(F)cc(c23)NC1c1ccc(F)cc1 (configuration not stated) | > 100 nM | 99.6% and 119% and 78.8% | 110% and 114% and 69% | – | – | – | – | viability, T/C (compound 0.000316 µM): 102% and 97.2% and 113%; viability, T/C (compound 0.001 µM): 97.8% and 111% and 108%; viability, T/C (compound 0.00316 µM): 91.4% and 107% and 93.2%; viability, T/C (compound 0.01 µM): 103% and 107% and 102%
Nc1ccn(C2OC(CO)C(O)C2(F)F)c(=O)n1 (configuration not stated) | < 31.6 nM | 9.07% and 4.89% and 17.2% | 8.27% and 4.63% and 16.2% | 8.52% and 4.4% and 18.1% | 9.77% and 4.35% and 19.5% | 9.11% and 3.84% and 21.3% | 8.12% and 4.79% and 17.4% | –
Nc1ncn(C2CC(O)C(CO)O2)c(=O)n1 (configuration not stated) | > 1000 nM and 982 nM | 98.8% and 108% and 88.1% | 114% and 107% and 76.6% | 133% and 121% and 49.5% | – | – | 137% and 110% and 65.2% | viability, T/C (compound 0.00316 µM): 102% and 96.5% and 89.6%; viability, T/C (compound 0.01 µM): 104% and 110% and 93.2%
O=C(C=Cc1cccc(S(=O)(=O)Nc2ccccc2)c1)NO | 1160 nM and 2160 nM and 285 nM | 96.8% and 107% and 99.7% | 93.5% and 112% and 84.1% | 55.2% and 91.8% and 13.2% | – | 5.03% and 5.28% and 0.5% | 99.1% and 95.8% and 46.9% | –
O=C(c1cc(Cc2n[nH]c(=O)c3ccccc23)ccc1F)N1CCN(C(=O)C2CC2)CC1 | > 10000 nM and 6300 nM | 97.8% and 98% and 85.2% | 93.2% and 103% and 106% | 109% and 92.3% and 85% | 132% and 89.9% and 70.9% | 120% and 114% and 36.5% | 114% and 94.5% and 98.3% | –

The next lines start with results.

IC50 (curve of compound) | Compound | viability, T/C (compound 0.0316 µM) | viability, T/C (compound 0.1 µM) | viability, T/C (compound 1 µM) | viability, T/C (compound 3.16 µM) | viability, T/C (compound 10 µM) | viability, T/C (compound 0.316 µM) | other results
949 nM and 927 nM and 412 nM | NS(=O)(=O)OCC1CC(n2ccc3c(NC4CCc5ccccc54)ncnc32)CC1O (configuration not stated) | 89.3% and 94.6% and 101% | 102% (2×) and 88.4% | 45.8% and 44.2% and 18.4% | 20.8% and 25.7% and 4.9% | 5.48% and 7.98% and 1.51% | 89.2% and 88.5% and 60.5% | –
4530 nM and 5440 nM and 639 nM | Nc1ccccc1NC(=O)c1ccc(CNC(=O)OCc2cccnc2)cc1 | 88.5% and 90.8% and 86.3% | 93.2% and 91.9% and 87.4% | 86.5% and 92.2% and 37% | 68.6% and 79.5% and 12.6% | 8.95% and 16.8% and 0.82% | 76.2% and 99.5% and 68.8% | –
> 300 nM and 134 nM | Nc1ncn(C2CC(O)C(CO)S2)c(=O)n1 (configuration not stated) | – | – | – | – | – | – | viability, T/C (compound 0.000949 µM): 87.2% and 104% and 95.7%; viability, T/C (compound 0.003 µM): 88% and 111% and 97.1%; viability, T/C (compound 0.00949 µM): 108% and 115% and 92.5%; viability, T/C (compound 0.03 µM): 125% and 111% and 78.5%; viability, T/C (compound 0.0949 µM): 128% and 116% and 60.8%; viability, T/C (compound 0.3 µM): 102% and 117% and 26.4%
474 nM and 524 nM and 61.5 nM | O=C(C=Cn1cnc(-c2cc(C(F)(F)F)cc(C(F)(F)F)c2)n1)NNc1cnccn1 | – | – | – | – | – | – | viability, T/C (compound 0.00949 µM): 92.2% and 97% and 81.2%; viability, T/C (compound 0.03 µM): 102% and 90.7% and 65.3%; viability, T/C (compound 0.0949 µM): 102% and 91.8% and 41.7%; viability, T/C (compound 0.3 µM): 74.7% and 80.7% and 10.9%; viability, T/C (compound 0.949 µM): 12.6% and 17.4% and 2.87%; viability, T/C (compound 3 µM): 4.45% and 8.73% and 1.48%
